Laboratory results: US7879566B2, “Methods for the identification of modulators of OSGPR114 or OSGPR78 activity, and their use in the treatment of disease” (OSI Pharmaceuticals, Inc., priority 2003, dated 2011)

Legend:
[1] = target: T1, OSGPR78 (Homo sapiens, UniProt P43657, I33V); experiment: Yeast Fus1p-LacZ β-galactosidase reporter assay, OSGPR78-transformed yeast; assay type: cell-based; conditions: yeast transformed with OSGPR78
T1 construct: expressed in transfected cells; host or cells: engineered yeast (GPA1 replaced by G-alpha chimeras, STE3 deleted; Fus1p-LacZ reporters)
T1 sequence (P43657 1-344 I33V): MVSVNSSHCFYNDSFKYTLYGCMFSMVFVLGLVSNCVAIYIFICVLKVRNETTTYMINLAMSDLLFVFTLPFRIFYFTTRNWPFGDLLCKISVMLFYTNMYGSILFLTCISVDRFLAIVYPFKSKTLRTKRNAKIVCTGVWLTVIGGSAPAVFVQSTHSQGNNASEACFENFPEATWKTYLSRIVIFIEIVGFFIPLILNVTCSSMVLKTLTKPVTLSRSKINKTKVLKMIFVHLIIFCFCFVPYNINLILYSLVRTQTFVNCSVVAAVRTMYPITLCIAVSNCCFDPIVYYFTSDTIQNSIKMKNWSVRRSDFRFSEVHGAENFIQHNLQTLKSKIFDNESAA
Text: (§1) The yeast cell-based reporter assays have previously been described in the literature (e.g. see Miret J. J., et. al. (2002) J. Biol. Chem. 277:6881-6887; Campbell R. M., et. al. (1999) Bioorg Med. Chem. Lett. 9:2413-2418; King K., et. al. (1990) Science. 250:121-123); WO 99/14344; WO 00/12704; and U.S. Pat. No. 6,100,042). Briefly, yeast cells have been engineered such that the endogenous yeast G-alpha (GPA1) has been deleted and replaced with G-protein chimeras constructed using multiple techniques. Additionally the endogenous yeast alpha-cell GPCR, STE3 has been deleted to allow for a […] expression of a mammalian GPCR of choice. In the yeast, elements of the pheromone signaling transduction pathway, which are conserved in eukaryotic cells (for example, the mitogen-activated protein kinase pathway), drive the expression of Fus1. By placing β-galactosidase (LacZ) under the control of the Fus1 promoter (Fus1p), a system has been developed whereby receptor activation leads to an enzymatic read-out. Different yeast strains (e.g. FIG. 6) denote the presence of different G-alpha chimeras (see “yeast reporter assays” in Results section below for definitions).
(§2) Yeast cells are transformed by an adaptation of the Lithium acetate method described by Agatep et.al. (Agatep, R., et. al. (1998) Transformation of Saccharomyces cerevisiae by the lithium acetate/single-stranded carrier DNA/polyethylene glycol (LiAc/ss-DNA/PEG) protocol. Technical Tips Online, Trends Journals, Elsevier). Briefly, yeast cells are grown overnight on yeast tryptone plates (YT). Carrier single-stranded DNA (10 μg), 2 μg of each of two Fus1p-LacZ reporter plasmids (one with URA3 selection marker and one with TRP1), 2 μg of OSGPR114 or OSGPR78 in yeast expression vector (2p origin of replication) and a lithium acetate/polyethylene glycol/TE buffer is pipetted into an Epindorf tube. The yeast expression plasmid containing the receptor/no receptor control has a LEU2 marker. Yeast cells are inoculated into this mixture and the reaction proceeds at 30° C. for 60 minutes. The yeast cells are then heat-shocked at 42° C. for 15 minutes. The cells are then washed and spread on selection plates. The selection plates are synthetic defined yeast media minus LEU, URA and TRP (SD-LUT). After incubating at 30° C. for 2-3 days, colonies that grow on the selection plates are then tested in the LacZ assay.
(§3) In order to perform fluorometric enzyme assays for β-galactosidase, yeast cells were grown overnight in liquid SD-LUT media to an unsaturated concentration (i.e. the cells are still dividing and have not yet reached stationary phase). They are diluted in fresh media to an optimal assay concentration and 90 μL of yeast cells were added to 96-well black polystyrene plates (Costar). Compounds, dissolved in ethanol and diluted in a 1% BSA solution to 10× concentration, were added to the plates and the yeast are placed at 30° C. for 4 h. After 4 h, the substrate for the β-galactosidase is added to each well: The substrate may yield a fluorescent or calorimetric read-out upon the activity of the β-galactosidase. In these experiments, Fluorescein di(β-D-galactopyranoside) was used (FDG), a substrate for the enzyme that releases fluorescein, allowing a fluorometric read-out. 20 μL of 500 μM FDG was used. After incubation of the cells with the substrate for 30-60 mins, 20 μL of 1 M sodium carbonate is added to terminate the reaction and enhance the fluorescent signal. The plates were then read in a fluorometer at 485/535 nm. As an alternate read-out system, the yeast are also engineered with a Fus1p-HIS gene which means that activation of the receptor can also be measured through the growth of the yeast in a […] media.

[2] = target: T2, OSGPR114 (Homo sapiens, UniProt Q9H1C0); experiment: Yeast Fus1p-LacZ β-galactosidase reporter assay, OSGPR114-transformed yeast; assay type: cell-based; conditions: for effect on fluorescence (β-galactosidase reporter): yeast transformed with OSGPR114
T2 construct: expressed in transfected cells; host or cells: engineered yeast (GPA1 replaced by G-alpha chimeras, STE3 deleted; Fus1p-LacZ reporters)
T2 sequence (Q9H1C0 whole entry): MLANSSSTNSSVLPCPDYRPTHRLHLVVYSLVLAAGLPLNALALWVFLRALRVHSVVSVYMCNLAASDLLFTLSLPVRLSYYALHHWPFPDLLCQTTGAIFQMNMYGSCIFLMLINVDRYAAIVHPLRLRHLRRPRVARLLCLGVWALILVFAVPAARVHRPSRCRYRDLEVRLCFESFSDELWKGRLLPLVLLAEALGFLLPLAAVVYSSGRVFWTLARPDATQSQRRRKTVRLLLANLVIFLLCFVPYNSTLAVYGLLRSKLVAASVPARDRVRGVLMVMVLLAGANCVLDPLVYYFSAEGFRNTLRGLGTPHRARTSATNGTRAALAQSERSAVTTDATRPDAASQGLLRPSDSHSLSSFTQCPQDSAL
Text: as §1, §2, §3

[3] = target: T2, OSGPR114; experiment: FLIPR intracellular calcium assay, CHO-OSGPR114 cells; assay type: cell-based; conditions: co-addition with LPA
Experimental: For example, in one method employed herein, CHO and CHO-114 cells were seeded at a concentration of 50K cells/well in […] growth media in clear, flat-bottom 96-well black assay plates and incubated overnight at 37 C. The growth media is aspirated from the cells and a dye solution ([…]) added to each well. The dye solution consists of 2 mM probenecid, 2 mM HBSS, […] in a growth media minus antibiotics solution. The cells are loaded with the dye for 1 h at 37 C before aspiration and rinsing with wash buffer (20 mM HBSS+2 mM Probenecid). Compound plates are then prepared with 4× compound/control. 150 ul of wash buffer is added to each well. Once the FLIPR is fully calibrated, compound is added to the plate and the release of calcium measured using 0.4 exposure length and a laser set at 0.3W.

[4] = tested on: vector transformed yeast cells; experiment: Yeast Fus1p-LacZ reporter assay, vector control (no receptor); assay type: cell-based; conditions: vector controls, same yeast strains
Text: as §1, §2
as §3, with “Compounds, dissolved in ethanol and diluted in a 1% BSA solution to 10× concentration, were added to the plates and the yeast are placed at 30° C. for 4 h.” left out, “20 μL of 500 μM FDG was used. After incubation of the cells with the substrate for 30-60 mins, 20 μL of 1 M sodium carbonate is added to terminate the reaction and enhance the fluorescent signal.” left out

[5] = target: endogenous CHO receptor; experiment: [35S]-GTPγS binding, parental CHO membranes; assay type: biochemical, hamster; conditions: 1 nM to 300 nM applied
Experimental: For example, in one method employed herein, membranes from untransfected CHO cells as well as OSGPR114 stable clones were prepared using the method described by Griffin et al (1998). Membranes were homogenized in buffer containing 50 mM Tris, 3 mM MgCl2, 100 mM NaCl, 1 mM EDTA, 1 uM GDP, 0.1% fatty acid free BSA, 0.01% Saponin, pH 7.4. Assays were carried out in a reaction mixture containing […], 50 mL of [^35S]-GTPgS binding (final concentration 0.5 nM: 50 mL aliquot counted to determine precise concentration employed) and either 50 mL of assay buffer, 50 mL of unlabeled GTPgS (defining nonspecific binding:final concentration is […]) or 50 mL of each concentration of LPA. Incubations were carried out in triplicate for 60 minutes at 37° C. Reactions were terminated by rapid filtration over GF/B filters presoaked in ice cold wash buffer for 90 minutes. The filters were then washed 6 times with 0.3 mL of ice cold wash buffer (50 mM Tris, 5 mM MgCl2, pH 7.4). The filters were dried, covered with Microscint-20, dark adapted for 5 minutes, and counted on a 2 minute [^35S] protocol on a Packard TopCount LSC.

[6] = target: T2, OSGPR114; experiment: [35S]-GTPγS binding, CHO-OSGPR114 membranes; assay type: biochemical; conditions: CHO-OSGPR114 versus CHO membranes
Experimental: For example, in one method employed herein, membranes from untransfected CHO cells as well as OSGPR114 stable clones were prepared using the method described by Griffin et al (1998). Membranes were homogenized in buffer containing 50 mM Tris, 3 mM MgCl2, 100 mM NaCl, 1 mM EDTA, 1 uM GDP, 0.1% fatty acid free BSA, 0.01% Saponin, pH 7.4. Assays were carried out in a reaction mixture containing 50 mL of membrane suspension (5 mg/well), 50 mL of [^35S]-GTPgS binding (final concentration 0.5 nM: 50 mL aliquot counted to determine precise concentration employed) and either 50 mL of assay buffer, 50 mL of unlabeled GTPgS (defining nonspecific binding:final concentration is 10 mM) or 50 mL of each concentration of LPA. Incubations were carried out in triplicate for 60 minutes at 37° C. Reactions were terminated by rapid filtration over GF/B filters presoaked in ice cold wash buffer for 90 minutes. The filters were then washed 6 times with 0.3 mL of ice cold wash buffer (50 mM Tris, 5 mM MgCl2, pH 7.4). The filters were dried, covered with Microscint-20, dark adapted for 5 minutes, and counted on a 2 minute [^35S] protocol on a Packard TopCount LSC.

Molecule	effect on fluorescence (β-galactosidase reporter) [1]	effect on fluorescence (β-galactosidase reporter) [2]	effect of co-addition on LPA calcium response [3]	response in vector transformed yeast cells [4]	response in vector transformed yeast cells ([4]; listed as oleoyl LPA)	EC50 [5] [nM]	response in yeast G-alpha chimera strains ([2]; chimeras of Galpha q (20156) and Galphas (20202))	Emax, GTPγS binding [6]
Nc1ncnc2c1ncn2[C@@H]1O[C@H](COP(=O)(O)OP(=O)(O)OP(=O)(O)O)[C@@H](O)[C@H]1O [ATP]	no effect	no effect						
platelet-activating factor [PAF]	no effect	no effect						
Nc1ncnc2c1ncn2[C@@H]1O[C@H](COP(=O)(O)OP(=O)(O)O)[C@@H](O)[C@H]1O [ADP]	no effect	no effect						
pertussis toxin			completely abolished this effect					
CCCCCCCCC=CCCCCCCCC(=O)OCC(O)COP(=O)(O)O (centres unmarked) [Oleoyl LPA, oleoyl lysophosphatidic acid]	increase in fluorescence	increase in fluorescence		not in vector transformed cells	did not respond	768	could produce a response	comparable Emax values
CCCCCCCCCCCCCCCC(=O)OC[C@@H](O)COP(=O)(O)O [palmitoyl LPA, palmitoyl lysophosphatidic acid]	increase in fluorescence	increase in fluorescence		not in vector transformed cells				
CCCCCCCCCCCCCC(=O)OC[C@@H](O)COP(=O)(O)O [myristoyl LPA, myristoyl lysophosphatidic acid]	increase in fluorescence	increase in fluorescence		not in vector transformed cells				
CCCCCCCCCCCCCCCCCC(=O)OC[C@@H](O)COP(=O)(O)O [stearoyl LPA, stearoyl lysophosphatidic acid]	increase in fluorescence	increase in fluorescence		not in vector transformed cells				
